The text below walks through data of ChEMBL document CHEMBL4665680, “Drug Induced Liver Injury (DILI). Mechanisms and Medicinal Chemistry Avoidance/Mitigation Strategies” (J Med Chem, 2020).

The nature of this series: Toxicity in po dosed human assessed as maximum daily dose. In kind it is organism-based. The settings on record: in vivo.
For the molecule `CC(C)(C)NC(=O)[C@@H]1C[C@@H]2CCCC[C@@H]2CN1C[C@@H](O)[C@H](Cc1ccccc1)NC(=O)[C@H](CC(N)=O)NC(=O)c1ccc2ccccc2n1`, the Activity is 2000 mg.

For `CCCN(CCC)C(=O)Cc1c(-c2ccc(Cl)cc2)nc2ccc(Cl)cn12` [ALPIDEM], the Activity amounted to 150 mg.

On to `COc1ccc(Cl)cc1C(=O)NCCc1ccc(S(=O)(=O)NC(=O)NC2CCCCC2)cc1` [GLYBURIDE], for which the Activity is 20 mg. For `CCCCC1=NC2(CCCC2)C(=O)N1Cc1ccc(-c2ccccc2-c2nnn[nH]2)cc1` [IRBESARTAN] the value was 300 mg; for `CC(=O)N1CCN(c2ccc(OCC3COC(Cn4ccnc4)(c4ccc(Cl)cc4Cl)O3)cc2)CC1` (stereo not drawn) [KETOCONAZOLE], 400 mg; for `CS(=O)(=O)CCNCc1ccc(-c2ccc3ncnc(Nc4ccc(OCc5cccc(F)c5)c(Cl)c4)c3c2)o1` [LAPATINIB], 1500 mg. `CCCCc1nc(Cl)c(CO)n1Cc1ccc(-c2ccccc2-c2nn[nH]n2)cc1` [LOSARTAN]: the Activity came to 100 mg. For `CCc1nn(CCCN2CCN(c3cccc(Cl)c3)CC2)c(=O)n1CCOc1ccccc1` [NEFAZODONE] the value was 600 mg. Next, `COC(=O)C1=C(C)NC(C)=C(C(=O)OCCN(C)Cc2ccccc2)C1c1cccc([N+](=O)[O-])c1` (stereo not drawn) [NICARDIPINE]: 120 mg. For the molecule `CCc1ccc(CCOc2ccc(CC3SC(=O)NC3=O)cc2)nc1` (stereo not drawn) [PIOGLITAZONE], the Activity is listed as 45 mg. On to `COC(=O)[C@H]1[C@H]2C[C@@H]3c4[nH]c5cc(OC)ccc5c4CCN3C[C@H]2C[C@@H](OC(=O)c2cc(OC)c(OC)c(OC)c2)[C@@H]1OC` [RESERPINE], for which the Activity was determined as 0.5 mg.

Turning to `CN(CCOc1ccc(CC2SC(=O)NC2=O)cc1)c1ccccn1` (stereo not drawn) [ROSIGLITAZONE], the Activity amounted to 8 mg.

`Cc1c(C)c2c(c(C)c1O)CCC(C)(COc1ccc(CC3SC(=O)NC3=O)cc1)O2` (stereo not drawn) [TROGLITAZONE]: the Activity came to 600 mg.
